In ChEMBL document CHEMBL1201862, “PubChem BioAssay data set” (2004):
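Step 1: Grow cells in 96-well plates. Step 2: Expose to compound for 48 hours at 5 concentrations. Step 3: Interpolate endpoints linearly; if unreached, use highest concentration. The concentration for 50% growth inhibition is given as GI50.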 Calls of active or inactive are those of the source. Rule as the data show it: active = GI50 up to about 1.1 µM and inactive = higher.

Columns and labels:
Experiment in all cases: NCI-60 cell line screen, 48 h
DU-145 = test system: DU-145
A498 = test system: A498
OVCAR-3 = test system: OVCAR-3
LOX IMVI = test system: LOX IMVI
UO-31 = test system: UO-31
PC-3 = test system: PC-3
ACHN = test system: ACHN
OVCAR-5 = test system: OVCAR-5
K562 = test system: K562
HOP-62 = test system: HOP-62
T47D = test system: T47D
HCC 2998 = test system: HCC 2998
COLO 205 = test system: COLO 205
KM12 = test system: KM12
NCI-H226 = test system: NCI-H226
SNB-75 = test system: SNB-75
SK-MEL-2 = test system: SK-MEL-2
NCI-H522 = test system: NCI-H522
SR = test system: SR

Measured: GI50

O=c1c(Br)cc2c(-c3ccccc3)c3cc(Br)c(O)c(Br)c3oc-2c1Br
inactive: DU-145 > 100 µM | A498 27.3 µM | OVCAR-3 > 100 µM | LOX IMVI 37.4 µM | UO-31 > 100 µM | PC-3 > 100 µM | ACHN > 100 µM | OVCAR-5 > 100 µM | K562 > 100 µM | HOP-62 > 100 µM | T47D > 100 µM | HCC 2998 83.8 µM | COLO 205 51.2 µM | KM12 > 100 µM | NCI-H226 > 100 µM

Cc1cn(CC2=NCC(C)(C)CN2)c(=O)[nH]c1=O
inactive: DU-145 > 100 µM | A498 > 100 µM | LOX IMVI > 100 µM | SNB-75 > 100 µM | UO-31 > 100 µM | SK-MEL-2 > 100 µM | PC-3 > 100 µM | ACHN > 100 µM | OVCAR-5 > 100 µM | HOP-62 > 100 µM | T47D > 100 µM | NCI-H522 > 100 µM | HCC 2998 > 100 µM | COLO 205 > 100 µM | NCI-H226 > 100 µM

c1ccc(CCc2cccnc2)nc1
inactive: A498 > 100 µM | OVCAR-3 > 100 µM | LOX IMVI > 100 µM | SNB-75 > 100 µM | UO-31 > 100 µM | SK-MEL-2 > 100 µM | SR > 100 µM | PC-3 > 100 µM | ACHN > 100 µM | OVCAR-5 > 100 µM | K562 52.4 µM | HOP-62 > 100 µM | T47D > 100 µM | NCI-H522 45.7 µM | COLO 205 > 100 µM | KM12 > 100 µM | NCI-H226 > 100 µM

O=c1[nH]c2cc([N+](=O)[O-])c(N/N=C/c3ccc(Cl)cc3Cl)c([N+](=O)[O-])c2[nH]1
inactive: DU-145 51.9 µM | A498 14.3 µM | OVCAR-3 17.4 µM | LOX IMVI 18.5 µM | SNB-75 > 100 µM | UO-31 41.6 µM | SK-MEL-2 > 100 µM | PC-3 > 100 µM | ACHN 39.8 µM | OVCAR-5 70 µM | K562 43.6 µM | HOP-62 59.6 µM | T47D > 100 µM | NCI-H522 31.1 µM | COLO 205 > 100 µM | KM12 5.85 µM | NCI-H226 58.3 µM

CCCCCCCCCc1nn2c(Cc3ccccc3)nnc2s1
inactive: DU-145 22.4 µM | A498 18.2 µM | OVCAR-3 17.2 µM | SNB-75 26.4 µM | UO-31 13.1 µM | SK-MEL-2 19.8 µM | PC-3 22.1 µM | ACHN 20 µM | OVCAR-5 14.4 µM | K562 32.5 µM | HOP-62 19.9 µM | T47D 24.7 µM | NCI-H522 14 µM | COLO 205 17.5 µM | KM12 25 µM

COCc1cc2c(cc1/C(=C/[N+](=O)[O-])CS(=O)(=O)c1ccccc1)OCO2
inactive: DU-145 > 100 µM | A498 > 100 µM | OVCAR-3 > 100 µM | LOX IMVI > 100 µM | SNB-75 > 100 µM | UO-31 > 100 µM | SR > 100 µM | ACHN > 100 µM | OVCAR-5 > 100 µM | K562 > 100 µM | HOP-62 > 100 µM | T47D > 100 µM | NCI-H522 43.6 µM | HCC 2998 > 100 µM | COLO 205 > 100 µM | NCI-H226 > 100 µM

CC1CSc2nc3nc(S)nc-3c(O)n2C1 (configuration not stated)
inactive: DU-145 > 100 µM | A498 > 100 µM | OVCAR-3 > 100 µM | LOX IMVI > 100 µM | SNB-75 > 100 µM | UO-31 > 100 µM | ACHN > 100 µM | OVCAR-5 > 100 µM | K562 > 100 µM | HOP-62 > 100 µM | T47D > 100 µM | HCC 2998 > 100 µM | COLO 205 > 100 µM | KM12 > 100 µM | NCI-H226 > 100 µM

CC1CC(N)=C(C#N)C1(C#N)C#N (configuration not stated)
inactive: DU-145 > 100 µM | A498 > 100 µM | LOX IMVI > 100 µM | SNB-75 74.3 µM | UO-31 > 100 µM | SK-MEL-2 > 100 µM | PC-3 > 100 µM | ACHN > 100 µM | OVCAR-5 > 100 µM | K562 > 100 µM | T47D > 100 µM | NCI-H522 > 100 µM | HCC 2998 > 100 µM | COLO 205 > 100 µM | KM12 > 100 µM | NCI-H226 > 100 µM

O=C1C(Cl)C2(CC(/C=C/c3ccccc3)=NN2c2cccc(S(=O)(=O)O)c2)N1c1nc2ccccc2s1 (configuration not stated)
inactive: A498 19.3 µM | LOX IMVI 2.79 µM | SNB-75 15.3 µM | UO-31 4.32 µM | SK-MEL-2 17.3 µM | SR 13.4 µM | PC-3 16.1 µM | ACHN 16.6 µM | OVCAR-5 18.1 µM | K562 21.4 µM | T47D 11 µM | NCI-H522 6.53 µM | HCC 2998 14.4 µM | COLO 205 19.2 µM | KM12 16.3 µM | NCI-H226 17.7 µM
